# Laboratory results as given in publication PMC11462627, “SAL0114: a novel deuterated dextromethorphan-bupropion combination with improved antidepressant efficacy and safety profile” (Frontiers in Pharmacology, 2024).
# Experiments:
# Format in all cases: in vivo
# C57BL/6J mice = test: Ammonia-induced cough mouse model; conditions: oral; for cough inhibition rate: 0.5 h post-administration
# Experimental: Antitussive effects were investigated using a classical mouse cough model induced by ammonia liquor, with some modifications ([Jiang et al., 2014]; [Adejayan et al., 2019]). An ammonia-induced cough model in male C57BL/6J mice was used to evaluate the antitussive effects using a two-step approach. The initial screening phase aimed to identify the mice with consistent and pronounced cough responses. Individual mice were exposed to 0.2 mL of 13% ammonium hydroxide solution in 500 mL glass vials. A trained observer measured the latency period and recorded the number of coughs over a 3-min period post-exposure. […] Following a 24-h recovery period, 70 eligible mice were randomly allocated to seven treatment groups (n = 10 per group) for the compound evaluation phase. […] All compounds were administered orally at a volume of 10 mL/kg. At 0.5 h post-administration, each mouse was re-exposed to 0.2 mL of 13% ammonia in a 500 mL glass jar for 1 min. Subsequently, the trained observer recorded the number of coughs over a 3-min period following removal from the jar. […] All experimental procedures were conducted in strict compliance with guidelines approved by the Institutional Animal Care and Use Committee of Shenzhen Salubris Pharmaceuticals Co., Ltd., ensuring adherence to ethical standards in animal research. A P value of less than 0.05 was considered statistically significant for comparisons between groups.
# [1] = Pharmacokinetic study in C57BL/6 mice; conditions: plasma DM or deDM, C57BL/6 mice, oral, 20 mg/kg, mean ± SD
# Source text: The assay was built in a way similar to that previously published by [Beconi et al. (2011)] with some modifications. A total of 36 male C57BL/6 mice, weighing between 20 and 22 g, were randomly divided into four groups of nine mice each. […] Mice in each group were numbered 1–9. Following the oral administration of the compounds in each group, blood was collected from the jugular vein at the specified time points, with three mice at each time point and two to three times for each mouse. 1–3 numbered mice had blood collection time points of 0.25, 1.5, and 7 h after the administration of the compounds, 4–6 numbered mice had blood collection time points of 0.5, 2, and 24 h after the administration of the compounds, and 7–9 numbered mice had blood collection time points of 1 and 5 h after the administration of the compounds. All blood samples were collected without anesthesia, and blood was collected in heparinized EP tubes. Plasma was obtained by centrifuging the blood at 10,000 rpm for 2 min at 4°C.
# [2] = Pharmacokinetics in beagle dog after oral administration; conditions: deDM, 14 mg/kg, mean, n=3
# Source text: (§1) Results expressed as mean, n=3 per group
# ICR mice = test: Forced swim test; conditions: FST, oral, 1 h after administration, deDM 10 and 18 mg/kg, BUP 50 mg/kg, deDM + BUP 10 + 50 and 18 + 50 mg/kg
# Experimental: The mouse forced swim test was performed in a way similar to that published previously by Nguyen et al. ([Nguyen et al., 2017]) with some modifications. […] All compounds were administered orally via gavage at a volume of 10 mL/kg body weight, with the vehicle group receiving an equivalent volume of saline. 1 h after administration, mice underwent the forced swim test (FST), a widely used behavioral assay for evaluating antidepressant-like effects. Each mouse was individually placed in a transparent cylindrical tank filled with water (depth: 18 cm, temperature: 25°C ± 1°C) for a 6-min test session. The initial 2 min served as the acclimatization period and was not scored. Floating time during the subsequent 4 min was measured using ANY-Maze Version 4.63 video tracking software (Stoelting Co., Illinois, United States). Floating was defined as the minimum movement required to keep the animal’s head above water. Floating time (%) = floatting time(s)/240 s. The ANY-Maze software parameters were set as follows: acclimatization period = 120 s, test duration = 240 s, minimum immobility time = 2 s, and immobility sensitivity = 75%. To maintain consistent conditions, water was changed between the animals. […]
# [3] = Pharmacokinetics in male SD rat after oral administration; conditions: DM or deDM, male SD rat, oral, 50 mg/kg, mean, n=3
# Source text: as §1
substance,measurement,setting,value
deuterated dextromethorphan [deDM],cough inhibition compared with the vehicle group,"C57BL/6J mice; deDM 5 and 10 mg/kg, BUP 40 mg/kg, deDM + BUP 5 + 40 and 10 + 40 mg/kg",neither deDM nor BUP significantly inhibited cough
same,cough inhibition rate,C57BL/6J mice; high dose 10 mg/kg,9.1%
same,cough inhibition rate,C57BL/6J mice; low dose 5 mg/kg,8.3%
same,AUC0-last,[1],387 ± 163 ng·h/mL
same,Cmax,[1],269 ± 83 ng/mL
same,AUC0-last (♀),[2]; female beagle dog,153 ng·h/mL
same,Cmax (♀),[2]; female beagle dog,60 ng/mL
same,AUC0-last (♂),[2]; male beagle dog,383 ng·h/mL
same,Cmax (♂),[2]; male beagle dog,157 ng/mL
same,floating time compared to the vehicle group,ICR mice,did not significantly reduce the floating time
same,AUC0-last,[3],374 ng·h/mL
same,Cmax,[3],84 ng/mL
